± gives the expanded uncertainty stated by the source.
Legend:
[1] = excess molar enthalpy (molar enthalpy of mixing); xn = mol fraction of the nth substance listed; details: 298.15 K, 101 kPa, Liquid
[2] = xn = mol fraction of the nth substance listed; details: 298.15 K, 101 kPa, Liquid

BrCCBr [1,2-dibromoethane] + COC(C)=O
Details | excess molar enthalpy [kJ/mol] | mass density [kg/m3]
[1], x2 = 0.0678 | 0.0977 ± 0.0031 | –
[1], x2 = 0.1329 | 0.167 ± 0.0042 | –
[1], x2 = 0.2086 | 0.225 ± 0.005 | –
[1], x2 = 0.2791 | 0.259 ± 0.0056 | –
[1], x2 = 0.3449 | 0.279 ± 0.0059 | –
[1], x2 = 0.4079 | 0.284 ± 0.006 | –
[1], x2 = 0.4651 | 0.274 ± 0.0058 | –
[1], x2 = 0.5145 | 0.258 ± 0.0055 | –
[1], x2 = 0.5219 | 0.254 ± 0.0055 | –
[1], x2 = 0.559 | 0.238 ± 0.0052 | –
[1], x2 = 0.5731 | 0.23 ± 0.0051 | –
[1], x2 = 0.6281 | 0.199 ± 0.0046 | –
[1], x2 = 0.6875 | 0.161 ± 0.004 | –
[1], x2 = 0.7492 | 0.12 ± 0.0034 | –
[1], x2 = 0.8149 | 0.087 ± 0.0029 | –
[1], x2 = 0.8808 | 0.0509 ± 0.0023 | –
[1], x2 = 0.9429 | 0.0264 ± 0.002 | –
[2], x2 = 0.0644 | – | 2093.03 ± 9
[2], x2 = 0.1265 | – | 2019.85 ± 8.2
[2], x2 = 0.186 | – | 1949.51 ± 7.4
[2], x2 = 0.2463 | – | 1877.44 ± 6.7
[2], x2 = 0.3093 | – | 1801.67 ± 6
[2], x2 = 0.3675 | – | 1731.26 ± 5.4
[2], x2 = 0.4309 | – | 1653.78 ± 4.7
[2], x2 = 0.4879 | – | 1583.49 ± 4.2
[2], x2 = 0.5507 | – | 1505.69 ± 3.6
[2], x2 = 0.6003 | – | 1443.71 ± 3.2
[2], x2 = 0.7248 | – | 1286.24 ± 2.2
[2], x2 = 0.7776 | – | 1218.54 ± 1.9
[2], x2 = 0.8338 | – | 1146.14 ± 1.5
[2], x2 = 0.8868 | – | 1076.96 ± 1.2
[2], x2 = 0.9443 | – | 1001.13 ± 0.84

BrCCBr [1,2-dibromoethane] + COC=O
Details | excess molar enthalpy [kJ/mol] | mass density [kg/m3]
[1], x2 = 0.0726 | 0.235 ± 0.0053 | –
[1], x2 = 0.1528 | 0.47 ± 0.0089 | –
[1], x2 = 0.2426 | 0.653 ± 0.012 | –
[1], x2 = 0.3298 | 0.749 ± 0.013 | –
[1], x2 = 0.4034 | 0.795 ± 0.014 | –
[1], x2 = 0.4719 | 0.812 ± 0.014 | –
[1], x2 = 0.5315 | 0.802 ± 0.014 | –
[1], x2 = 0.5856 | 0.773 ± 0.013 | –
[1], x2 = 0.6347 | 0.732 ± 0.013 | –
[1], x2 = 0.6786 | 0.681 ± 0.012 | –
[1], x2 = 0.7171 | 0.627 ± 0.011 | –
[1], x2 = 0.7759 | 0.531 ± 0.0098 | –
[1], x2 = 0.8639 | 0.355 ± 0.0071 | –
[1], x2 = 0.9405 | 0.172 ± 0.0043 | –
[2], x2 = 0.0941 | – | 2084.41 ± 8.8
[2], x2 = 0.1513 | – | 2030.58 ± 8.2
[2], x2 = 0.2019 | – | 1980.75 ± 7.6
[2], x2 = 0.251 | – | 1931.96 ± 7.1
[2], x2 = 0.2967 | – | 1881.94 ± 6.6
[2], x2 = 0.3904 | – | 1784.54 ± 5.7
[2], x2 = 0.4985 | – | 1662.03 ± 4.6
[2], x2 = 0.5973 | – | 1543.27 ± 3.8
[2], x2 = 0.7057 | – | 1404.1 ± 2.9
[2], x2 = 0.7483 | – | 1346.2 ± 2.5
[2], x2 = 0.7967 | – | 1278.68 ± 2.1
[2], x2 = 0.8478 | – | 1205.01 ± 1.8
[2], x2 = 0.8808 | – | 1155.98 ± 1.5
[2], x2 = 0.9402 | – | 1064.28 ± 1.1

BrCCCBr [1,3-dibromopropane] + CCC(=O)OC
Details | excess molar enthalpy [kJ/mol] | mass density [kg/m3]
[1], x2 = 0.0646 | 0.0699 ± 0.0053 | –
[1], x2 = 0.1354 | 0.114 ± 0.0066 | –
[1], x2 = 0.2107 | 0.142 ± 0.0075 | –
[1], x2 = 0.2845 | 0.155 ± 0.0079 | –
[1], x2 = 0.3517 | 0.153 ± 0.0078 | –
[1], x2 = 0.4137 | 0.141 ± 0.0075 | –
[1], x2 = 0.4627 | 0.125 ± 0.007 | –
[1], x2 = 0.4703 | 0.123 ± 0.0069 | –
[1], x2 = 0.5077 | 0.111 ± 0.0065 | –
[1], x2 = 0.5202 | 0.103 ± 0.0063 | –
[1], x2 = 0.5574 | 0.0929 ± 0.006 | –
[1], x2 = 0.566 | 0.0847 ± 0.0057 | –
[1], x2 = 0.6073 | 0.0653 ± 0.0052 | –
[1], x2 = 0.6129 | 0.0576 ± 0.0049 | –
[1], x2 = 0.6726 | 0.0311 ± 0.0041 | –
[1], x2 = 0.7385 | 0.0021 ± 0.0032 | –
[1], x2 = 0.8065 | -0.0135 ± 0.0035 | –
[1], x2 = 0.873 | -0.0147 ± 0.0036 | –
[1], x2 = 0.9388 | -0.009 ± 0.0034 | –
[2], x2 = 0.059 | – | 1909.4 ± 7.6
[2], x2 = 0.1261 | – | 1841.06 ± 6.8
[2], x2 = 0.1889 | – | 1776.8 ± 6.2
[2], x2 = 0.243 | – | 1720.78 ± 5.6
[2], x2 = 0.3657 | – | 1593.37 ± 4.5
[2], x2 = 0.4328 | – | 1523.29 ± 3.9
[2], x2 = 0.4901 | – | 1462.96 ± 3.5
[2], x2 = 0.5464 | – | 1403.57 ± 3.1
[2], x2 = 0.6165 | – | 1328.98 ± 2.6
[2], x2 = 0.7214 | – | 1216.43 ± 1.9
[2], x2 = 0.7712 | – | 1162.65 ± 1.6
[2], x2 = 0.8235 | – | 1105.81 ± 1.3
[2], x2 = 0.8863 | – | 1037.06 ± 0.96
[2], x2 = 0.9375 | – | 980.57 ± 0.84
